# Reference: patent EP3655424B1, “PEPTIDES MODULATING SPERM MOTILITY BY MODULATING THE PHOSPHOPROTEIN PHOSPHATASE 1 COMPLEX” (University of Wolverhampton, priority 2017, dated 2021)
# Read-outs that look alike come from different tables or passages of the source.
# Legend:
# human spermatozoa [1] = experiment: Motility assay (Sperm Class Analyzer CASA System), human sperm; assay type: cell-based; details: for immotile spermatozoa increased (printed: mean decrease) / mean decrease in fast progressive motility / mean decrease in non-progressive motility / mean decrease in slow progressive motility / motility parameters: human spermatozoa; for immotile spermatozoa increased (printed: mean decrease) / mean decrease in fast progressive motility / mean decrease in non-progressive motility / mean decrease in slow progressive motility: 20 µM
# Protocol: (§1) This study was approved by the Ethics and Internal Review Board of the Hospital Infante D. Pedro E.P.E. (Aveiro, Portugal) and was conducted in accordance with the ethical standards of the Helsinki Declaration. Human semen samples were obtained from a randomized group of donors, by masturbation to a sterile container. All donors signed informed consent allowing the samples to be used for scientific purposes. Basic semen analysis was performed according to World Health Organization (WHO) guidelines. Fresh semen from Holstein Frisian bulls was obtained from LusoGenes, LDA (Aveiro, Portugal). Semen was collected by artificial vagina and assessed by a certified veterinarian. Human and bovine spermatozoa were isolated and washed from seminal plasma by centrifugation (800 g for 5 min, 3 times) using ALLGrade Wash medium (LifeGlobal, Brussels, Belgium). Spermatozoa pellets were resuspended in medium to a final concentration of 20x10^6 cells/0.5 mL and incubated at 37°C with 5 % CO2 until the appropriated treatments were added.
# (§2) Peptides (PPP1CC2-CT, TAMRA-PPP1CC2-CT, AKAP4 and AKAP4 M) were added to bovine and human sperm samples in total volume of 500 µl containing approximately 2 x10^7 sperm cells per well. Control samples included sperm cells in medium alone. The influence of bioportides on sperm motility parameters was assessed using the Sperm Class Analyzer CASA System (Microptic S L, Barcelona, Spain) with SCA® v5.4 software. Samples and controls (2 µl) were loaded into individual chambers of Leja Standrat Count 8 chamber slide 20 µm depth (Leja Products B. V., The Netherlands) which were pre-heated at 37 °C. This temperature was maintained while at least 1000 sperm cells/per measurement were evaluated. Each peptide was tested on samples from 3 individual donors and all the conditions were performed in triplicate.
# (§3) Bovine and human spermatozoa were exposed to different extracellular peptide concentrations (10 and 20 µM) and motility parameters were assessed at 1 and 2 h. For reference, negative controls were performed in the absence of peptides.
# bovine spermatozoa [2] = experiment: Motility assay (Sperm Class Analyzer CASA System), bovine sperm; assay type: cell-based; details: for concentration-dependent effect on motility parameters: 10 µM versus 20 µM
# Protocol: as §1, §2, §3
# bovine spermatozoa [3] = assay type: cell-based
# Protocol: Bovine spermatozoa viability was evaluated using the trypan blue viability test according to manufacturer's guidelines. Human spermatozoa viability was measured using the CellTiter 96® AQueous Non-Radioactive Cell Proliferation Assay (Promega, Madison, USA) according to manufacturer's guidelines.
# bovine spermatozoa [4] = experiment: Intracellular accumulation / quantitative translocation of TAMRA-labelled peptides, bovine sperm; assay type: cell-based
# Protocol: (§4) Isolated bovine and human spermatozoa (4 x10^7 cells) were suspended and incubated with 10 µM TAMRA-labeled peptides for 1 h at 37 °C in a humidified atmosphere of 95% air/5 % CO2. Cells were then washed three times (800 g for 5 min) in ALLGrade Wash medium (LigeGlobal, Brussels, Belgium). To confirm if the fluorescently labeled peptides were not merely surface associated, the sperm cell population was divided in two and a trypsin incubation was used to remove any surface associated peptides. In summary, half of the cells were set aside (2 x10^7 cells) and fixed in 4 % paraformaldehyde (PFA) for 20 min. The other half was incubated with 1 % (wt/vol) trypsin at 37 °C, collected by centrifugation at 3000 g, washed in ALLGrade Wash medium (LigeGlobal, Brussels, Belgium) and resuspended in 4 % PFA 20 min. Fixed cells from each preparation were spread into coverslips and allowed to air dry. After mounting, slides were assessed by fluorescence microscopy (Imager.Z1, Axio-Cam HRm camera and AxioVision software, Zeiss, Jena, Germany). Translocation efficacies of CPP-mediated intracellular delivery of the peptides sequences were determined by the quantitative uptake analysis of fluorescently labeled moieties^[3]. Isolated bovine and human spermatozoa were incubated with 10 µM TAMRA-labeled peptides for 1 h at 37 °C in a humidified atmosphere of 5 % CO2. Cells were then washed four times with PBS, detached with 1 % (w/v) trypsin at 37 °C, collected by centrifugation at 3000 g and lysed in 300 µl 0.1 M NaOH for 2 h on ice. 250 µl of each sample cell lysate were transferred to a black 96-well plate, and analyzed using an Infinite® 200 PRO (Tecan, Switzerland) (λAbs 544 nm/λEm 590 nm).
# human spermatozoa [5] = experiment: Intracellular accumulation / quantitative translocation of TAMRA-labelled peptides, human sperm; assay type: cell-based
# Protocol: as §4, with “Isolated bovine and human spermatozoa (4 x10^7 cells) were suspended and incubated with 10 µM TAMRA-labeled peptides for 1 h at 37 °C in a humidified atmosphere of 95% air/5 % CO2.” left out, “Isolated bovine and human spermatozoa were incubated with 10 µM TAMRA-labeled peptides for 1 h at 37 °C in a humidified atmosphere of 5 % CO2.” left out
# PPP1CC2-AKAP4 complex = experiment: Disruption of PPP1CC2-AKAP4 complex purified from human sperm (Figure 6B); assay type: binding; details: co-incubation, AKAP4-BM at 10 µM
# Protocol: To establish that the detected fluorescence was not attributed to surface-associated peptide, isolated sperm cells were incubated for 1h with 10µM TAMRA-labelled peptide and subsequently treated with 1% (w/v) trypsin to remove any peptide bound to the surface of spermatozoa. Negative controls without the TAMRA-labelled peptides were performed and presented no reactivity. Images are representative from three independent experiments. Lower panel (right): Quantitative analyses of peptide translocation into bovine and human spermatozoa. Bovine and human spermatozoa were incubated with TAMRA-labelled bioportides (10µM) for 1 h at 37°C. Data are expressed as fluorescence (minus negative control). Three independent experiments were performed in quadruplicate. […] Graph bars represent the mean values of three independent experiments performed in triplicate. Error bars 95% CI. […] Graph bars represent the mean values of three independent experiments performed in triplicate. Error bars 95% CI. […] Images are representative from 3 independent experiments. […] A PPP1CC2-AKAP4 complex was purified from human sperm (Lane 1, left). […] 12, a PPP1 inhibitor, was used as a positive control and, as expected, also decreases the interaction (lane 4). […]
# [6] = 1h, compared with negative control
# [7] = 2h, compared with negative control
# [8] = 10 µM, 1h, compared with negative control
# [9] = 10 µM, 2h, compared with AKAP4-BM M
# [10] = 10 µM, 2h, compared with negative control
# [11] = 20 µM, 1h, compared with AKAP4-BM M
# [12] = 20 µM, 1h, compared with negative control
# [13] = 20 µM, 2h, compared with AKAP4-BM M
# [14] = 20 µM, 2h, compared with negative control
substance,measurement,setting,value
GQQDQDRKVICFVDVSTLNVRQIKIWFQNRRMKWKK [AKAP4-BM],progressive motility,"human spermatozoa [1]; human sperm, Figure 6C left panel",statistically significant decrease in progressive motility
same,percentage of immotile spermatozoa,"human spermatozoa [1]; human sperm, Figure 6C middle panel",corresponding increase in the percentage of immotile spermatozoa
same,immotile spermatozoa increased (printed: mean decrease),"human spermatozoa [1]; 1h, compared with AKAP4-BM M",47.3 ± 19.2%
same,mean decrease in fast progressive motility,"human spermatozoa [1]; 1h, compared with AKAP4-BM M",87.0 ± 4.3%
same,mean decrease in non-progressive motility,"human spermatozoa [1]; 1h, compared with AKAP4-BM M",43.4 ± 24.8%
same,mean decrease in slow progressive motility,"human spermatozoa [1]; 1h, compared with AKAP4-BM M",85.1 ± 5.2%
same,immotile spermatozoa increased (printed: mean decrease),human spermatozoa [1]; [6],63.0 ± 27.8%
same,mean decrease in fast progressive motility,human spermatozoa [1]; [6],49.8 ± 22.5%
same,mean decrease in non-progressive motility,human spermatozoa [1]; [6],31.0 ± 26.9%
same,mean decrease in slow progressive motility,human spermatozoa [1]; [6],"87,6 ± 5,2%"
same,immotile spermatozoa increased (printed: mean decrease),"human spermatozoa [1]; 2h, compared with AKAP4-BM M",41.9 ± 14.7%
same,mean decrease in fast progressive motility,"human spermatozoa [1]; 2h, compared with AKAP4-BM M",82.7 ± 20.7%
same,mean decrease in non-progressive motility,"human spermatozoa [1]; 2h, compared with AKAP4-BM M",50.6 ± 21.0%
same,mean decrease in slow progressive motility,"human spermatozoa [1]; 2h, compared with AKAP4-BM M",82.3 ± 11.5%
same,immotile spermatozoa increased (printed: mean decrease),human spermatozoa [1]; [7],74.5 ± 28.3%
same,mean decrease in fast progressive motility,human spermatozoa [1]; [7],50.5 ± 9.7%
same,mean decrease in non-progressive motility,human spermatozoa [1]; [7],58.6 ± 16.1%
same,mean decrease in slow progressive motility,human spermatozoa [1]; [7],"85,7 ± 8,7%"
same,concentration-dependent effect on motility parameters,bovine spermatozoa [2],concentration-dependent effect
same,mean decrease in fast progressive motility,"bovine spermatozoa [2]; 10 µM, 1h, compared with AKAP4-BM M",41.9 ± 20.0%
same,mean decrease in fast progressive motility,bovine spermatozoa [2]; [8],49.8 ± 22.5%
same,mean decrease in fast progressive motility,bovine spermatozoa [2]; [9],43.9 ± 15.3%
same,mean decrease in slow progressive motility,bovine spermatozoa [2]; [9],21.6 ± 64.4%
same,mean decrease in fast progressive motility,bovine spermatozoa [2]; [10],50.5 ± 9.7%
same,mean decrease in slow progressive motility,bovine spermatozoa [2]; [10],42.4 ± 20.4%
same,mean decrease in fast progressive motility,bovine spermatozoa [2]; [11],95.0 ± 6.5%
same,mean decrease in non-progressive motility,bovine spermatozoa [2]; [11],63.1 ± 8.3%
same,"immotile spermatozoa, mean increase",bovine spermatozoa [2]; [12],91.8 ± 25.4%
same,mean decrease in non-progressive motility,bovine spermatozoa [2]; [12],50.0 ± 10.9%
same,mean decrease in slow progressive motility,bovine spermatozoa [2]; [12],95.3 ± 4.8%
same,mean decrease in fast progressive motility,bovine spermatozoa [2]; [13],"98,4 ± 2,6%"
same,mean decrease in non-progressive motility,bovine spermatozoa [2]; [13],63.0 ± 7.5%
same,mean decrease in slow progressive motility,bovine spermatozoa [2]; [13],94.1 ± 4.9%
same,"immotile spermatozoa, mean increase",bovine spermatozoa [2]; [14],183.7 ± 88.4%
same,mean decrease in fast progressive motility,bovine spermatozoa [2]; [14],98.6 ± 2.9%
same,mean decrease in slow progressive motility,bovine spermatozoa [2]; [14],94.2 ± 4.8%
same,percentage of viable spermatozoa,bovine spermatozoa [3],slight decrease
same,internalization (microscopic analyses),bovine spermatozoa [4],internalized very efficiently
same,internalization (microscopic analyses),human spermatozoa [5],internalized very efficiently
same,interaction between PPP1CC2 and AKAP4,PPP1CC2-AKAP4 complex,disrupts the PPP1CC2-AKAP4 complex
RQIKIWFQNRRMKWKKKPNATRPVTPPRVASGLNPSIQKASNYRNNTVLY (H-RQIKIWFQNRRMKWKKKPNATRPVTPPRVASGLNPSIQKASNYRNNTVLY-NH2) [PPP1CC2-CT],motility parameters,human spermatozoa [1]; 10 µM,did not induce any significant alterations
same,mean decrease in fast progressive motility,human spermatozoa [1]; [7],34.5 ± 12.3%
same,concentration-dependent effect on motility parameters,bovine spermatozoa [2],no concentration-dependent effect
same,"immotile spermatozoa, mean increase",bovine spermatozoa [2]; [8],72.5 ± 33.6%
same,mean decrease in fast progressive motility,bovine spermatozoa [2]; [8],55.9 ± 19.4%
same,mean decrease in slow progressive motility,bovine spermatozoa [2]; [8],49.9 ± 41%
same,"immotile spermatozoa, mean increase",bovine spermatozoa [2]; [10],128.3 ± 85.3%
same,mean decrease in fast progressive motility,bovine spermatozoa [2]; [10],53.9 ± 19.9%
same,mean decrease in slow progressive motility,bovine spermatozoa [2]; [10],17.4 ± 57%
same,"immotile spermatozoa, mean increase",bovine spermatozoa [2]; [12],86.2 ± 72.3%
same,mean decrease in fast progressive motility,bovine spermatozoa [2]; [12],64.2 ± 8.3%
same,mean decrease in slow progressive motility,bovine spermatozoa [2]; [12],31.4 ± 35%
same,mean decrease in fast progressive motility,bovine spermatozoa [2]; [14],44.6 ± 9.7%
same,non-progressive motility,"bovine spermatozoa [2]; 10 and 20 µM, 1 and 2 h, Figure 3",No significant alterations
same,internalization (microscopic analyses),bovine spermatozoa [4],internalized very efficiently
same,internalization (microscopic analyses),human spermatozoa [5],internalized very efficiently
"AKAP4-BM M: mutated homologue (GQQDQDRAAAAAVDVSTLNV) of AKAP4-BM coupled to the Penetratin CPP, used as a control [reference compound]",motility parameters,"human spermatozoa [1]; compared with negative control, one exception: fast progressive motility at 2h with 20 µM",did not lead to significant differences
same,motility parameters,"bovine spermatozoa [2]; compared with negative control, two exceptions: fast progressive motility at 1h with 20 µM, immotile spermatozoa with 10 µM at 1h",did not lead to significant differences
same,internalization (microscopic analyses),"bovine spermatozoa [4]; bovine spermatozoa, 10 µM TAMRA-labelled peptide, 1 h, 37 °C, trypsin treated",internalized less efficiently
same,intracellular accumulation of red fluorescent (TAMRA) analogues,"human spermatozoa [5]; human spermatozoa, 5 µM, Figure 6A",accumulate within normal healthy human spermatozoa
same,internalization (microscopic analyses),"human spermatozoa [5]; human spermatozoa, 10 µM TAMRA-labelled peptide, 1 h, 37 °C, trypsin treated",internalized less efficiently
